Assay results taken from patent US7651661B2, “Medical devices with broad spectrum antimicrobial activity” (Board of Regents, the University of Texas System, priority 2001, dated 2010).

Tested on: PS4205 (Pseudomonas aeruginosa)
Experiment: Zones of inhibition of impregnated devices, modified Kirby-Bauer technique
Assay type: cell-based
Procedure: Potassium tert-butoxide in THF, 7.35 ml of 1M solution, was added to a solution of CHX diacetate, 1.533 g; 2.45 mmol in 35 ml THF. The resulting heterogeneous solution was stirred for 20 minutes, then added to a solution GV, 1.0 g; 2.45 mmol, in 30 ml THF (GV used as an example of Triarylmethane Dye). The mixture was stirred at ambient conditions for 1 hour, then placed under the hood overnight to evaporate the solvent. The resulting residue was dissolved in 30 ml DCM (or MeOH). When applicable, the base (such as neutral form of chlorhexidine) is added to a stirring solution of dye (such as GV) in DCM and the resulting mixture is stirred for at least 1 h. With anionic dyes, dissolution is achieved with the addition of at least one equivalent of a quaternary amine (such as tetraethylammonium) prior to addition of the base. One-centimeter device segments were immersed in the DCM solution for the appropriate period, generally PVC and PU for 10 minutes; Silicone (Si) and Silk Suture for 2 hours. The devices were removed from the solution, and traces of solution were removed from the lumen when applicable. The impregnated devices were placed under the hood to dry for at least 4 hours, preferably over night, then washed with distilled water until the washings were colorless or very faint, and finally placed under an aseptic hood to dry under ambient conditions for at least 4 hours, preferably overnight.
The antimicrobial activity of impregnated catheters was evaluated in duplicate by a modified Kirby-Bauer technique. BBL Mueller Hinton II agar plates (obtained from Fisher Scientific) were inoculated with 0.5 McFarland of the appropriate microorganism (hospital isolates from the MD Anderson Cancer Center). Then 10 mm segments of impregnated devices were embedded in the inoculated plates and placed in an incubator at about 37° C. for at least 18 hours. Zones of inhibition were measured perpendicular to the long axis of the device. Bioactivity against yeast constituted of two zones; a large outer zone of partial growth inhibition, and an inner smaller zone of complete inhibition. […]

[1] = PVC and silicone (Si) devices impregnated with the reagent alone

Compound	activity against Pseudomonas aeruginosa [1]	activity against Pseudomonas aeruginosa (after impregnating the surfaces of various polymers, including polyvinylchloride)
[H]/N=C(\N/C(=N/[H])NCCCCCCNC(=N)NC(=N)Nc1ccc(Cl)cc1)Nc1ccc(Cl)cc1 [CHX, chlorhexidine]	no activity	–
CN(C)c1ccc(C(=C2C=CC(=[N+](C)C)C=C2)c2ccc(N(C)C)cc2)cc1 [GV, Gentian violet]	no activity	no activity
